{
  "source": "ChEMBL document CHEMBL3856231",
  "about": "(J Med Chem, 2016)",
  "key": {"[1]": {"test": "Half life in CD-1 mouse at 1 mg/kg, iv by LC/MS/MS analysis", "assay_type": "ADME, organism-based", "conditions": "in vivo"}, "SUP-M2": {"test_system": "SUP-M2", "test": "Antitumor activity against human SUP-M2 cells expressing NPM-ALK xenografted in SCID-Beige mouse assessed as tumor ablation at 55 mg/kg, po qd administered for 12 days measured during compound dosing", "assay_type": "functional, organism-based"}, "[2]": {"test": "AUC (0 to infinity) in Sprague-Dawley rat at 5 mg/kg, po by LC/MS/MS analysis", "assay_type": "ADME, organism-based", "parameters": "dose 5 mg/kg, time infinity, route oral", "conditions": "in vivo"}, "[3]": {"test": "Oral bioavailability in CD-1 mouse at 10 mg/kg by LC/MS/MS analysis", "assay_type": "ADME, organism-based", "conditions": "in vivo"}, "[4]": {"test": "Ratio of total drug level in Sprague-Dawley rat brain to plasma at 30 mg/kg, po", "assay_type": "ADME, organism-based", "conditions": "brain and plasma, read-out: BPR"}, "Mus musculus": {"test_system": "Mus musculus", "test": "Inhibition of NPM-ALK phosphorylation in human SUP-M2 cells xenografted in mouse at 30 mg/kg, po administered as single dose measured upto 24 hrs", "assay_type": "functional"}, "[5]": {"test": "Half life in human liver microsomes by LC/MS/MS analysis", "assay_type": "ADME"}, "[6]": {"test": "AUC (0 to infinity) in cynomolgus monkey at 10 mg/kg, po by LC/MS/MS analysis", "assay_type": "ADME, organism-based, Macaca fascicularis", "parameters": "dose 10 mg/kg, route oral, time infinity", "conditions": "in vivo"}},
  "note": "Calls of active or inactive are those of the source. The rule behind the calls is not given here.",
  "data": [
    {"compound": "CNC(=O)c1ccccc1Nc1nc(Nc2ccc3c(c2OC)CCC[C@H](N2CCN(CCO)CC2)C3)ncc1Cl", "note": "[CEP-37440]", "values": [
      {"measurement": "half-life", "setting": "[1]", "result": 3, "unit": "h"},
      {"measurement": "Activity", "setting": "SUP-M2", "result": "Active"},
      {"measurement": "AUC(0-inf)", "setting": "[2]", "result": 8360, "unit": "ng·h/mL"},
      {"measurement": "bioavailability", "setting": "[3]", "result": 102, "unit": "%"},
      {"measurement": "Kp", "setting": "[4]", "result": "1.5 to 2"},
      {"measurement": "inhibition in vivo at 30 mg/kg", "setting": "Mus musculus", "result": "> 85", "unit": "%"},
      {"measurement": "half-life", "setting": "[5]", "result": 0.667, "unit": "h"},
      {"measurement": "AUC(0-inf)", "setting": "[6]", "result": 2760, "unit": "ng·h/mL"}
    ]}
  ]
}
